Results reported in US12076300B2, “Dosage regime with esketamine for treating major depressive disorder” (priority 2019, dated 2024).

Experiments:
[1] = Single dose, randomized, open-label, crossover study in healthy volunteers: pharmacokinetics; conditions: plasma analyte after single dose esketamine hydrochloride 20 mg oral solution; 15 subjects
Excerpt: A randomized, open-label 4-way crossover study in 16 healthy male and female subjects was held wherein said subjects were placed in a randomly assigned order and administered esketamine. Each subject was assigned to 1 of 4 treatment sequences according to a randomization code such that 4 subjects were assigned to each treatment sequence. There was a wash-out period of at least 7 days between dosing periods with doses consisting of either oral or intravenous esketamine hydrochloride. The study consisted of an eligibility screening period of 28 days, 4 study periods involving administration of a single dose of esketamine hydrochloride followed by safety assessments with blood sampling for PK purposes up to 72 hours after study drug administration, discharge at 72 hours after study drug administration and a follow-up visit 7-14 days after the last PK blood sample was taken on Day 4.

[2] = tested on: human peripheral blood lymphocytes (HPBL)
Protocol: The clastogenic potential of (S)-norketamine was evaluated in the in vitro mammalian chromosome aberration test using human peripheral blood lymphocytes (HPBL) in both the absence and presence of an induced metabolic activation system (the 9000 g supernatant [S9] microsomal fraction of liver homogenate from rats exposed to phenobarbital/5,6-benzoflavone).
The study was conducted in 2 phases, with a preliminary toxicity test used to determine the appropriate concentrations for the definitive chromosomal aberration assay. Water was used as a negative (vehicle) control. In both phases, the cells were treated for 3 and 21 hours in the absence of S9 mix and for 3 hours in the presence of S9 mix. The mitotic index was assessed for all cultures to determine cytotoxicity. Ten concentrations, ranging from 2.62 to 260.16 μg/mL, were evaluated in the preliminary toxicity test.

[3] = tested on: human peripheral blood lymphocytes (HPBL); remark: listed apart in the source
Protocol: The clastogenic potential of esketamine was evaluated in the in vitro mammalian chromosome aberration test using human peripheral blood lymphocytes (HPBL) in both the absence and presence of an induced metabolic activation system (the 9000 g supernatant [S9] microsomal fraction of liver homogenate from rats exposed to Aroclor-1254).
The study was conducted in 2 phases, with a preliminary toxicity test used to determine the appropriate concentrations for the definitive chromosomal aberration assay. Water was used as a negative (vehicle) control. Toxicity (defined as ≥45% reduction in MI relative to the vehicle control) was evaluated at 9 concentrations, ranging from 0.0238 to 238 μg/ml, after exposure of HPBL to esketamine for 20 hours in the absence of S9 activation, or for 4 hours, either in the presence or absence of S9 activation, followed by a 16-hour recovery period.
The definitive chromosome aberration assay evaluated HPBL cells after exposure to esketamine for 20 hours in the absence of S9 activation, or for 4 hours, either in the presence of absence of S9 activation, followed by a 16-hour recovery. Positive controls for chromosomal aberrations in non-activated and S9-activated evaluations, respectively, consisted of mitomycin C (MMC, 0.6 and 0.3 μg/mL for the 4- and 20-hour exposures, respectively) and cyclophosphamide (CP, 2.5, 5, and 7.5 μg/mL). […] Initially, the doses selected for evaluation of chromosomal aberrations were 60, 120, and 238 μg/mL for the non-activated 4- and 20-hour treatment conditions; and 30, 60, and 200 μg/mL for the S9-activated 4-hour treatment condition.

male Sprague Dawley rats = test: 7-day forced swim test; assay type: in vivo
Protocol: Groups of, 6-7 week old, male Sprague Dawley rats were administered esketamine by intraperitoneal injection and their behavioral despair assessed by a forced swim test. The animals, in cohorts of 10, were administered either a single dose of 15 mg/kg esketamine, 7 daily doses of either 7.5 or 15 mg/kg esketamine or a vehicle control, and the test performed 30 minutes after dosing. Statistical evaluation was performed using an ordinary One-Way ANOVA, t Test and an Uncorrected Fisher's LSD comparisons test.

[4] = Domino (2010); cited from earlier work
[5] = Pharmacokinetics of 40 mg oral esketamine in MDD participants treated with an antidepressant; assay type: in vivo, human; conditions: 40 mg oral esketamine hydrochloride once daily for 7 days, 15 MDD subjects
Protocol: An 18 subject in patient study to assess the safety, tolerability, and pharmacokinetics of 40 mg oral esketamine in MDD participants currently treated with an antidepressant drug was held. In an, up to, 35 day screening phase, the subjects were assessed for study eligibility and, if needed, washed out from disallowed drugs. During this period, it was also determined whether the subject's current dose of oral antidepressant medication had been stable for at least 4 weeks.

[6] = Repeated dose 28 day toxicokinetics; conditions: males vs females
Protocol: The objective of the study was to assess the potential toxicity, neurobehavioral effects, and toxicokinetics (TK) of esketamine when administered orally, via gavage, to Sprague Dawley rats for 28 days and to evaluate recovery during a 14-day drug-free period. Fifty male and 50 female rats were randomized into 4 groups (15/sex/Groups 1 and 4; 10/sex/Groups 2 and 3). Esketamine was administered via oral gavage once daily for 28 consecutive days to males at 0 (vehicle control), 6, 10 or 30 mg/kg/day and females at 0 (vehicle control), 2, 10 or 20 mg/kg/day in a dose volume of 10 mL/kg. Animals were observed until euthanized and necropsied on Day 29 (10/sex/group) or 43 (5/sex from Groups 1 and 4). Toxicity was evaluated based on mortality, clinical observations, body weights, food consumption, ophthalmology, motor activity, functional observational battery, clinical pathology (clinical chemistry, hematology, coagulation and urinalysis), organ weights, anatomic (macroscopic or microscopic) pathology. Toxicokinetic animals (3/sex/Group 1; 6/sex/Groups 2, 3, and 4) were similarly dosed and bled on Day 1 and during Week 4 for toxicokinetic analysis.

[7] = tested on: healthy male and female subjects; test: Single dose crossover study in healthy volunteers: treatment-emergent adverse events; assay type: in vivo, human; conditions: all treatments, 16 subjects
Excerpt: A total of 128 TEAEs (treatment-emergent adverse event) were reported by 15 of 16 (94%) subjects of which 79 TEAEs reported by 14 of 16 (88%) subjects were to be related to the study drug. Overall, a total of 14 of 128 TEAEs reported by 4 (25%) subjects were of moderate severity and 114 of 128 TEAEs reported by 15 (94%) subjects were of mild severity. […] The most frequently occurring adverse events (reported more than twice) were headache, dizziness, hypokinesia, feeling abnormal, fatigue, euphoric mood inappropriate affect, nausea and hyperhidrosis. Table 4 presents the frequency of the most frequently reported related TEAEs as a percentage of the subjects that experienced an adverse effect per treatment.

N[C@]1(c2ccccc2Cl)CCC[C@H](O)C1=O [(2S,6S)-OH-Norketamine, (2S,6S)-2-Amino-2-(2-chlorophenyl)-6-hydroxycyclohexanone]
t1/2, geometric mean [1]: 7.83 h

N[C@]1(c2ccccc2Cl)CCCCC1=O [(S)-norketamine, (2S)-2-(2-Chlorophenyl)-2-(amino) cyclohexanone]
clastogenicity (structural and numerical chromosomal aberrations) [2]: non-clastogenic

CN[C@]1(c2ccccc2Cl)CCCCC1=O [esketamine, (2S)-2-(2-Chlorophenyl)-2-(methylamino) cyclohexanone]
Cochran-Armitage test for dose response of structural aberrations [3]: positive for a dose response | induction of numerical chromosomal aberrations [3]: negative | induction of structural and numerical chromosomal aberrations [3]: negative | toxicity (≥45% reduction in MI relative to the vehicle control), preliminary toxicity test [3]: not observed at any dose | cytotoxicity (≥45% reduction in mitotic index relative to the vehicle control), definitive assay ([3]; non-activated 4- and 20-hour treatment, 30 to 238 μg/ml): not observed at any esketamine dose | antidepressant-like effect, continuous 7-day treatment vs single acute dose (male Sprague Dawley rats; same dose levels): stronger antidepressant-like effect than a single acute dose | effect on immobility time, acute treated rats (male Sprague Dawley rats; single dose of 15 mg/kg intraperitoneal, test 30 minutes after dosing): 42 % of control | psychotomimetic side effects compared with (R)-ketamine [4]: greater undesirable psychotomimetic side effects | mean esketamine Cmax [5]: 11.82 ng/mL | AUC(0-t) ([5]; human, in vivo, read-out: mean esketamine AUC0-t): 35.6 ng·h/mL | exposure by sex after normalization for dose level differences [6]: males had lower exposures than females | total number of TEAEs reported [7]: 128
